Measured values published in patent US6201006A, “Aromatic amidine derivatives useful as selective thrombin inhibitors” (C & C Research Laboratories, priority 1996, dated 2001).

Legend:
[1] = target: T1, human thrombin (Homo sapiens, UniProt P00734); assay: Inhibitory activity for thrombin (chromogenic substrate hydrolysis, 405 nm); assay type: biochemical; conditions: for Selectivity (trypsin/thrombin): IC50 for trypsin divided by IC50 for thrombin; for IC50: human thrombin, 20 min, pH 8.0, N-benzoyl-Phe-Val-Arg-p-nitroanilide
T1 construct: purchased Sigma T-6759
Outline: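 Thrombin: human enzyme (5 units/ml stock, 0.1% BSA) acted for 20 min on N-benzoyl-Phe-Val-Arg-p-nitroanilide in 125 mM NaCl, 50 mM Tris-HCl pH 8.0, with compounds dissolved in 50% methanol. Hydrolysis was read at 405 nm. Selectivity index was trypsin IC50 divided by thrombin IC50.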

[2] = tested on: thrombin time (TT) in rat plasma; assay: Thrombin time (TT) in rat plasma after oral administration; assay type: in vivo, SD male rats; conditions: TT after / TT before administration
Experimental: SD male rats weighing 220±20 g which had fasted overnight were used as experimental animals. Blood taken from the hearts of the experimental animals just before administration of the test compound and at 30, 60, 120 and 240 minutes after oral administration of the test compound was mixed with 0.108M sodium citrate in the ratio of 9:1. The mixtures thereby obtained were centrifuged at 15,000 rpm for 5 minutes at 4° C. to separate the plasma, which was stored at -20° C. until the TT was measured by means of the method described below.
200 μl of Owren's buffer was added to 50 μl of the plasma and 100 μl of the diluted plasma thereby obtained was injected into the vial of a coagulometer and then incubated for 2 minutes at 37° C. To each vial was added 100 μl of thrombin at a concentration of 20 U/ml, which had prewarmed at 37° C., to measure the time (TT) until clotting occurred. The ratio of the TT in rat plasma after administration of the test compound to the TT in rat plasma before administration of the test compound was calculated.

[3] = tested on: trypsin; assay: Inhibitory activity for trypsin; assay type: biochemical

SMILES	Selectivity (trypsin/thrombin) [1]	IC50 [1] [nM]	IC50 [3] [nM]	Plasma TT ratio after administration to rat ([2]; 30 mg/kg oral)	Plasma TT ratio after administration to rat ([2]; 50 mg/kg oral)	Plasma TT ratio after administration to rat ([2]; 100 mg/kg oral)
CCOC(=O)CN1CCC[C@@H]1C(=O)N1CCC[C@H]1CCc1cc2ccc(C(=N)N)cc2n1CC [Compound 86, ethyl 2-[(R)-2-[[(S)-2-[2-(6-amidino-1-ethylindol-2-yl)ethyl]pyrrolidinyl]carbonyl]pyrrolidinyl]acetate]	25.0	27		1.49	4.51	5.19
CCn1c(CC[C@@H]2CCCN2C(=O)[C@H]2CCCN2CCCC(=O)O)cc2ccc(C(=N)N)cc21 [Compound 127, 4-[(R)-2-[[(S)-2-[2-(6-amidino-1-ethylindol-2-yl)ethyl]pyrrolidinyl]carbonyl]pyrrolidinyl]butanoic acid]		21.7			8.00	
CCn1c(CC[C@@H]2CCCN2C(=O)[C@H]2CCCN2C(=O)C[C@H](N)C(=O)O)cc2ccc(C(=N)N)cc21 [Compound 161, 4-[(R)-2-[[(S)-2-[2-(6-amidino-1-ethylindol-2-yl)ethyl]pyrrolidinyl]carbonyl]pyrrolidinyl]-(S)-2-amino-4-oxobutanoic acid]	48.9	5.21			7.62	
CCn1c(CC[C@@H]2CCCN2C(=O)[C@H]2CCCN2C(C)=O)cc2ccc(C(=N)N)cc21 [Compound 171, 1-ethyl-2-[2-[(S)-1-[((R)-1-acetyl-pyrrolidin-2-yl)carbonyl]pyrrolidin-2-yl]ethyl]indole-6-carboxamidine]	35.1	10.6	373			4.23
CCn1c(CC[C@@H]2CCCN2C(=O)[C@H]2CCCN2C(=O)CCC(=O)O)cc2ccc(C(=N)N)cc21 [Compound 177]	26.6	18.8	500			
CCn1c(CC[C@@H]2CCCN2C(=O)[C@H]2CCCN2C(=O)CC(C)O)cc2ccc(C(=N)N)cc21 (stereo partly drawn) [Compound 180, 1-ethyl-2-[2-[(S)-1-[[(R)-1-(3-hydroxybutanoyl)pyrrolidin-2-yl]carbonyl]pyrrolidin-2-yl]-ethyl]indole-6-carboxamidine]	31.8	11	351			
C=CC(=O)N1CCC[C@@H]1C(=O)N1CCC[C@H]1CCc1cc2ccc(C(=N)N)cc2n1CC [Compound 182, 1-ethyl-2-[2-[(S)-1-[((R)-1-prop-2-enoyl-pyrrolidin-2-yl)carbonyl]pyrrolidin-2-yl]ethyl]indole-6-carboxamidine]	30.0	10.1	304			
CCn1c(CC[C@@H]2CCCN2C(=O)[C@H]2CCCN2S(C)(=O)=O)cc2ccc(C(=N)N)cc21 [Compound 184, 1-ethyl-2-[2-[(S)-1-[[(R)-1-(methanesulfonyl)pyrrolidin-2-yl]carbonyl]pyrrolidin-2-yl]ethyl]indole-6-carboxamidine]	57.9	9.51	551			
CCOC(=O)CN1CCC[C@@H]1C(=O)N1CCC[C@H]1CCc1cc2ccc(C(=N)NC(=O)OCC)cc2n1CC [Compound 267, ethyl 2-[(R)-2-[[(S)-2-[2-[1-ethyl-6-[(ethoxycarbonylamino)iminomethyl]indol-2-yl]ethyl]pyrrolidinyl]carbonyl]pyrrolidinyl]acetate]					4.48	
CCOC(=O)CN1CCC[C@@H]1C(=O)N1CCC[C@H]1CCc1cc2ccc(C(=N)NC(=O)OC(C)C)cc2n1CC [Compound 270, ethyl 2-[(R)-2-[[(S)-2-[2-[1-ethyl-6-[imino[(methylethoxy)carbonylamino]methyl]indol-2-yl]ethyl]pyrrolidinyl]carbonyl]pyrrolidinyl]acetate]				1.46	4.30	
CCOC(=O)CN1CCCC1C(=O)N1CCCC1CCc1cc2ccc(C(=N)NC(=O)OC(Cl)(Cl)Cl)cc2n1CC [Compound 272, ethyl 2-[(R)-2-[[(S)-2-[2-[6-[[(trichloromethoxy)carbonylamino]iminomethyl]-1-ethylindol-2-yl]ethyl]pyrrolidinyl]carbonyl]pyrrolidinyl]acetate]				1.76	2.84	

Now from value to compound, other results behind:

Selectivity (trypsin/thrombin) [1]	IC50 [1] [nM]	IC50 [3] [nM]	SMILES	Plasma TT ratio after administration to rat ([2]; 30 mg/kg oral)	Plasma TT ratio after administration to rat ([2]; 50 mg/kg oral)	Plasma TT ratio after administration to rat ([2]; 100 mg/kg oral)
14.5	12.3		CCn1c(CCC2CCCN2C(=O)C2CCCN2C(CCO)C(=O)O)cc2ccc(C(=N)N)cc21 [Compound 118, 2-[(R)-2-[[(S)-2-[2-(6-amidino-1-ethylindol-2-yl)ethyl]pyrrolidinyl]carbonyl]pyrrolidinyl]-4-hydroxy-butanoic acid]		8.80	
	40.5		CCOC(=O)CCCN1CCC[C@@H]1C(=O)N1CCC[C@H]1CCc1cc2ccc(C(=N)N)cc2n1CC [Compound 126, ethyl 4-[(R)-2-[[(S)-2-[2-(6-amidino-1-ethylindol-2-yl)ethyl]pyrrolidinyl]carbonyl]pyrrolidinyl]butanoate]		5.40	
	10.4		CCn1c(CC[C@@H]2CCCN2C(=O)[C@H]2CCCN2C(=O)[C@@H](N)CC(=O)O)cc2ccc(C(=N)N)cc21 [Compound 149, 4-[(R)-2-[[(S)-2-[2-(6-amidino-1-ethylindol-2-yl)ethyl]pyrrolidinyl]carbonyl]pyrrolidinyl]-(S)-3-amino-4-oxobutanoic acid]		9.24	
24.7	11.6	287	CCn1c(CC[C@@H]2CCCN2C(=O)[C@H]2CCCN2C(=O)CCN)cc2ccc(C(=N)N)cc21 [Compound 155, 1-ethyl-2-[2-[(S)-1-[[(R)-1-(3-aminopropanoyl)pyrrolidin-2-yl]carbonyl]pyrrolidin-2-yl]ethyl]indole-6-carboxamidine]		3.93	7.36
20.7	19.3		CCOC(=O)[C@@H](N)CC(=O)N1CCC[C@@H]1C(=O)N1CCC[C@H]1CCc1cc2ccc(C(=N)N)cc2n1CC [Compound 159, ethyl 4-[(R)-2-[[(S)-2-[2-(6-amidino-1-ethylindol-2-yl)-ethyl]pyrrolidinyl]carbonyl]pyrrolidinyl]-(S)-2-amino-4-oxobutanoate]		6.23	
25.0	15.3	382	CCn1c(CC[C@@H]2CCCN2C(=O)[C@H]2CCCN2C(=O)C[C@H](N)C(N)=O)cc2ccc(C(=N)N)cc21 [Compound 160, 1-ethyl-2-[2-[(S)-1-[[(R)-1-((S)-3-amino-3-carbamoylpropanoyl)pyrrolidin-2-yl]carbonyl]pyrrolidin-2-yl]ethyl]indole-6-carboxamidine]		2.30	
31.9	33.5	1070	CC(=O)N1CCC[C@@H]1C(=O)N1CCC[C@H]1CCc1cc2ccc(C(=N)N)cc2n1C [Compound 170, 1-methyl-2-[2-[(S)-1-[((R)-1-acetylpyrrolidin-2-yl)-carbonyl]pyrrolidin-2-yl]ethyl]indole-6-carboxamidine]			
